Tests used:
Type in all cases: cell-based
[1] = system: algae cells; assay: Trehalose treatment, viability at room temperature under low light
Description: Cells in 40 ml flask cultures are grown to mid-log phase with a density of between 3×10^6 and 3×10^7 cells/ml, and are centrifuged. Culture medium is removed after centrifugation, resulting in more concentrated algae cells. Cells are then re-suspended in ideal glass solution consisting of fresh culture medium and trehalose at a concentration of 0.1M, 0.3M, and 0.5M (dihydrate trehalose 100 from Hayashibara Co. Ltd, Okayama, Japan), respectively, and left overnight with mild agitation. Cells are centrifuged again to remove the ideal glass solution the next day, and are re-suspended in fresh or salt water without any nutrient. The cell density of the resulting suspension is determined prior to storage under the various treatments. (Some cells were also treated with a 0.5M sorbitol solution). Cell viability is determined by comparing the cell growth in control set with the experimental set. Specifically, cell counts are performed on all samples. The averaged density value (in cells per ml) for all the cultures after treatment is defined as “rejuvenation cell count.” In some samples, the percent recovery of cells immediately after storage is also determined. The formulae are illustrated as follows: Growth=(rejuvenation cell count)/(initial cell count) Cell recovery after storage=(cell density after storage)/(initial cell density), with controls set at 100% cell recovery. […]

[2] = system: Chlorella (KAS503); assay: Trehalose preservation, storage as liquid in sponge matrix
Description: (§1) Flask cultures (40 ml) of cells are grown to mid-log phase with a density between 3×10^6 and 3×10^7 cells/ml, and are centrifuged. Culture medium is removed after centrifugation, resulting in more concentrated algae cells. Cells are then re-suspended in fresh medium and left overnight. Cells are centrifuged again the next day in order to remove the medium, and are then re-suspended in fresh or salt water without any nutrient. The cell density of the suspension is determined prior to storage under the various treatments. Cells in 40 ml flask cultures are grown to mid-log phase with a density of between 3×10^6 and 3×10^7 cells/ml, and are centrifuged. Culture medium is removed after centrifugation, resulting in more concentrated algae cells. Cells are then re-suspended in ideal glass solution consisting of fresh culture medium and trehalose at a concentration of 0.1M, 0.3M, and 0.5M (dihydrate trehalose 100 from Hayashibara Co. Ltd, Okayama, Japan), respectively, and left overnight with mild agitation. Cells are centrifuged again to remove the ideal glass solution the next day, and are re-suspended in fresh or salt water without any nutrient. The cell density of the resulting suspension is determined prior to storage under the various treatments. (Some cells were also treated with a 0.5M sorbitol solution). In one specific embodiment, non-toxic sponges made of polyurethane matrix ([…]-plugs® from Jaece Industries, Fisher Scientific 14-127-40B), 20 mm in diameter, are cut in half length-wise to fit the wells in the BD Falcon 12-well tissue culture plates and autoclave sterilized. One sponge is placed in each well of the tissue culture plate. 2.0 ml algae cell suspension is pipetted into each well, and the sponge is squeezed with sterile forceps to produce a faster uptake of the cell suspension into the sponge. Plates are subsequently closed and placed under low light and at ambient temperature. After stored under the above preservation conditions for 5 months, algae cells can be rejuvenated by squeezing the sponges with sterile forceps to allow a complete uptake of all cells in the suspension, including those cells not in the sponge such as cells remaining in the well. Cells in the sponges are then removed from the 12-well plates and placed in 10 ml of fresh medium under light. Cell viability is determined by comparing the cell growth in control set with the experimental set. Specifically, cell counts are performed on all samples. The averaged density value (in cells per ml) for all the cultures after treatment is defined as “rejuvenation cell count.” In some samples, the percent recovery of cells immediately after storage is also determined. The formulae are illustrated as follows: Growth=(rejuvenation cell count)/(initial cell count) Cell recovery after storage=(cell density after storage)/(initial cell density), with controls set at 100% cell recovery. Viability after storage and rejuvenation in nutrient medium=(Growth of treatment)/(Growth of control)×100%, with controls set at 100% viability

[3] = system: Chlorella (KAS603); assay: as above
Description: as §1

[4] = system: Tetraselmis KAS633; assay: as above
Description: as §1

[5] = 0.5M trehalose in F/2, 20 weeks storage in water (no nutrients)
[6] = 0.5M trehalose in F/2, 20 weeks storage, final/initial density
[7] = 0.5M trehalose in F/2, 20 weeks storage, 0M control = 100%

OC[C@H]1O[C@H](O[C@H]2O[C@H](CO)[C@@H](O)[C@H](O)[C@H]2O)[C@H](O)[C@@H](O)[C@@H]1O [trehalose, α-D-glycosyl-α-D-glycosylpyranoside]
Period for which cells remain viable [1]: at least 5 months
Final density after storage and 3 weeks rejuvenation [2, 5]: 6.565 × 10^7 cells/ml
Growth [2, 6]: 2.88
Final density after storage and 3 weeks rejuvenation [3, 5]: 2.246 × 10^7 cells/ml
% Viability [3, 7]: (193%)
Growth [3, 6]: 0.81
Final density after storage and 3 weeks rejuvenation [4, 5]: 2.031 × 10^6 cells/ml
% Viability [4, 7]: (93%)
Growth [4, 6]: 0.14

Source: patent US8735140B2, “Preservation and composition of bioprocess algae for production of lipids, seedstock, and feed” (Kuehnle AgroSystems, Inc., priority 2008, dated 2014)
